These results are taken from patent US10428083B2, “Heterocyclylmethyl-thienouracile as antagonists of the adenosine-A2B-receptor” (BAYER PHARMA AKTIENGESELLSCHAFT, priority 2015, dated 2019).

As usually defined, the IC50 is the point on the concentration scale where inhibition reaches its midpoint.

human adenosine A2b receptor, sequence (P29275 whole entry): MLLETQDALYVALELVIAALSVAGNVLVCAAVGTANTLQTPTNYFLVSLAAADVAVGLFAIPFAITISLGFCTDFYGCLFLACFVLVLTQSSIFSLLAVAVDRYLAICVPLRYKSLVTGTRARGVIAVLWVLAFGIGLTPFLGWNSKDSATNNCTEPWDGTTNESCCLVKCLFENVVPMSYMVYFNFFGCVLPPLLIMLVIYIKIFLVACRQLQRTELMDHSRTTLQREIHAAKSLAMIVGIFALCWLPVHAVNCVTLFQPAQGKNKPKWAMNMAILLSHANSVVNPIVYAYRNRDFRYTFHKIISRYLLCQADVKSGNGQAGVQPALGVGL

The test addresses human adenosine A2b receptor (Homo sapiens (Human), UniProt P29275). Description: Cellular in vitro reporter gene test for A2b receptor activity (CHO-K1, CRE-luciferase, NECA stimulation). In kind it is cell-based. The conditions noted are these: recombinant CHO-K1 cell line, CRE-luciferase reporter, antagonism of EC50 concentration of NECA; in some cases means of several determinations, rounded to two significant figures; read-out: A2b receptor IC50. An outline of the steps:
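CHO-K1 cells with CRE-driven luciferase; antagonists co-incubated with NECA at its EC50, determined in a pre-experiment on each test day. Luciferase read by luminescence 3 h after NECA addition.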
A general note: Reporter assays use an easily measured gene product as a stand-in for the process of interest.
`COCCn1c(=O)c2c(C)c(CN3CCNC3=NC#N)sc2n(CC2CCCO2)c1=O` (racemic) [Example 367, [1-{[3-(2-Methoxyethyl)-5-methyl-2,4-dioxo-1-(tetrahydrofuran-2-ylmethyl)-1,2,3,4-tetrahydrothieno[2,3-d]pyrimidin-6-yl]methyl}imidazolidin-2-ylidene]cyanamide]: the IC50 is 33 nM.

In the case of `Cc1c(CN2CCNC2=O)sc2c1c(=O)n(CC(C)C)c(=O)n2CC1CCO1` (racemic) [Example 194, 3-Isobutyl-5-methyl-1-(oxetan-2-ylmethyl)-6-[(2-oxoimidazolidin-1-yl)methyl]thieno[2,3-d]pyrimidine-2,4(1H,3H)-dione], the IC50 was 15 nM.

For the compound `CCn1c(=O)c2c(C)c(CN3CCNC3=O)sc2n(CC2CCO2)c1=O` (racemic) [Example 65, 3-Ethyl-5-methyl-1-(oxetan-2-ylmethyl)-6-[(2-oxoimidazolidin-1-yl)methyl]thieno[2,3-d]pyrimidine-2,4(1H,3H)-dione (racemate)], the concentration for half-maximal inhibition (IC50) was found to be 12 nM.

On to `COC(=O)N=C1NCCN1Cc1sc2c(c1C)c(=O)n(CC(F)(F)F)c(=O)n2CC1CCO1` (racemic) [Example 383, Methyl [1-{[5-methyl-1-(oxetan-2-ylmethyl)-2,4-dioxo-3-(2,2,2-trifluoroethyl)-1,2,3,4-tetrahydrothieno[2,3-d]pyrimidin-6-yl]methyl}imidazolidin-2-ylidene]carbamate], for which the IC50 was determined as 15 nM.

Regarding `Cc1c(CN2CCNC(=O)C2=O)sc2c1c(=O)n(CC(F)F)c(=O)n2CCC(F)(F)F` [Example 125, 3-(2,2-Difluoroethyl)-6-[(2,3-dioxopiperazin-1-yl)methyl]-5-methyl-1-(3,3,3-trifluoropropyl)thieno[2,3-d]pyrimidine-2,4(1H,3H)-dione], the IC50 was 8.8 nM.

For `COCCn1c(=O)n(CC(C)(C)C)c(=O)c2c(C)c(CN3CCNC3=NC(=O)OC)sc21` [Example 462, Methyl [1-{[3-(2,2-dimethylpropyl)-1-(2-methoxyethyl)-5-methyl-2,4-dioxo-1,2,3,4-tetrahydrothieno[2,3-d]pyrimidin-6-yl]methyl}imidazolidin-2-ylidene]carbamate], the IC50 is 16 nM.

Regarding `COCCn1c(=O)n(CCc2ccccc2)c(=O)c2c(C(F)(F)F)c(CN3CCCS3(=O)=O)sc21` [Example 18, 6-[(1,1-Dioxido-1,2-thiazolidin-2-yl)methyl]-1-(2-methoxyethyl)-3-(2-phenylethyl)-5-(trifluoromethyl)thieno[2,3-d]pyrimidine-2,4(1H,3H)-dione], the 50% inhibitory concentration (IC50) is 14 nM.

Consider `CCn1c(=O)c2c(C)c(Cn3[nH]ccc3=O)sc2n(CCC(F)(F)F)c1=O` [Example 127, 3-Ethyl-5-methyl-6-[(5-oxo-2,5-dihydro-1H-pyrazol-1-yl)methyl]-1-(3,3,3-trifluoropropyl)thieno[2,3-d]pyrimidine-2,4(1H,3H)-dione], for which the IC50 is 5.6 nM.

`Cc1c(CN2CCNC2=O)sc2c1c(=O)n(CC(F)F)c(=O)n2CC1CCCO1` (single isomer, unassigned) [Example 220, 3-(2,2-Difluoroethyl)-5-methyl-6-[(2-oxoimidazolidin-1-yl)methyl]-1-(tetrahydrofuran-2-ylmethyl)thieno[2,3-d]pyrimidine-2,4(1H,3H)-dione]: the IC50 is 15 nM.

As to `C=C(Cn1c(=O)n(CC)c(=O)c2c(C)c(CN3CCNC3=O)sc21)C(F)(F)F` [Example 53, 3-Ethyl-5-methyl-6-[(2-oxoimidazolidin-1-yl)methyl]-1-[2-(trifluoromethyl)prop-2-en-1-yl]thieno[2,3-d]pyrimidine-2,4(1H,3H)-dione], the IC50 turned out to be 14 nM.

As to `CCn1c(=O)c2c(C)c(CN3CCNC3=NC#N)sc2n(CC2CCO2)c1=O` (single isomer, unassigned) [Example 257, [1-{[3-Ethyl-5-methyl-1-(oxetan-2-ylmethyl)-2,4-dioxo-1,2,3,4-tetrahydrothieno[2,3-d]pyrimidin-6-yl]methyl}imidazolidin-2-ylidene]cyanamide], the concentration for half-maximal inhibition (IC50) is 7.1 nM.

Regarding `COCCn1c(=O)n(C(C)C)c(=O)c2c(C)c(CN3CCNC3=NC#N)sc21` [Example 263, [1-{[3-Isoprpy-1-(2-methoxyethyl)-5-methyl-2,4-dioxo-1,2,3,4-tetrahydrothieno[2,3-d]pyrimidin-6-yl]methyl}imidazolidin-2-ylidene]cyanamide], the IC50 turned out to be 5.3 nM.

As to `CCn1c(=O)c2c(C)c(Cn3nc[nH]c3=O)sc2n(CCCOC)c1=O` [Example 354, 3-Ethyl-1-(3-methoxypropyl)-5-methyl-6-[(5-oxo-4,5-dihydro-1H-1,2,4-triazol-1-yl)methyl]thieno[2,3-d]pyrimidine-2,4(1H,3H)-dione], the IC50 turned out to be 120 nM.

With `CCn1c(=O)c2c(C)c(CN3CCNC(=O)C3=O)sc2n(CCCOC)c1=O` [Example 396, 6-[(2,3-Dioxopiperazin-1-yl)methyl]-3-ethyl-1-(3-methoxypropyl)-5-methylthieno[2,3-d]pyrimidine-2,4(1H,3H)-dione], the IC50 came to 93 nM.

For the compound `C=CCn1cnn(Cc2sc3c(c2C)c(=O)n(CC)c(=O)n3CCOC)c1=O` [Example 112, 6-[(4-Allyl-5-oxo-4,5-dihydro-1H-1,2,4-triazol-1-yl)methyl]-3-ethyl-1-(2-methoxyethyl)-5-methylthieno[2,3-d]pyrimidine-2,4(1H,3H)-dione], the IC50 is 500 nM.

In the case of `Cc1c(CN2CCNC(=O)C2=O)sc2c1c(=O)n(CC(F)(F)F)c(=O)n2CC1CCCO1` (single isomer, unassigned) [Example 488, 6-[(2,3-Dioxopiperazin-1-yl)methyl]-5-methyl-1-(tetrahydrofuran-2-ylmethyl)-3-(2,2,2-trifluoroethyl)thieno[2,3-d]pyrimidine-2,4(1H,3H)-dione], the IC50 stood at 68 nM.

Turning to `CCn1c(=O)c2c(C)c(CN3CCCC3=O)sc2n(CCC(F)(F)F)c1=O` [Example 4, 3-Ethyl-5-methyl-6-[(2-oxopyrrolidin-1-yl)methyl]-1-(3,3,3-trifluoropropyl)thieno[2,3-d]pyrimidine-2,4(1H,3H)-dione], the IC50 was 5.2 nM.

Take `CCn1c(=O)c2c(C)c(CN3CCNC3=O)sc2n(CCC(F)(F)F)c1=O` [Example 48, 3-Ethyl-5-methyl-6-[(2-oxoimidazolidin-1-yl)methyl]-1-(3,3,3-trifluoropropyl)thieno[2,3-d]pyrimidine-2,4(1H,3H)-dione]: the IC50 was 1.4 nM.

With `Cc1c(Cn2nc[nH]c2=O)sc2c1c(=O)n(C(C)C)c(=O)n2CCC(F)(F)F` [Example 253, 3-Isopropyl-5-methyl-6-[(5-oxo-4,5-dihydro-1H-1,2,4-triazol-1-yl)methyl]-1-(3,3,3-trifluoropropyl)thieno[2,3-d]pyrimidine-2,4(1H,3H)-dione], the IC50 was 9.9 nM.

Consider `COCCn1c(=O)c2c(C)c(CN3CCNC(=O)C3=O)sc2n(CC2CCO2)c1=O` (racemic) [Example 400, 6-[(2,3-Dioxopiperazin-1-yl)methyl]-3-(2-methoxyethyl)-5-methyl-1-(oxetan-2-ylmethyl)thieno[2,3-d]pyrimidine-2,4(1H,3H)-dione], for which the half-inhibitory concentration (IC50) is 320 nM.

Regarding `Cc1c(CN2CCNC2=S)sc2c1c(=O)n(CC(F)F)c(=O)n2CC1CCCO1` (single isomer, unassigned) [Example 164, 3-(2,2-Difluoroethyl)-5-methyl-1-(tetrahydrofuran-2-ylmethyl)-6-[(2-thioxoimidazolidin-1-yl)methyl]thieno[2,3-d]pyrimidine-2,4(1H,3H)-dione], the IC50 stood at 17 nM.
